Measurements reported in patent US9963448B2, “Bicyclic inhibitors of PAD4” (Padlock Therapeutics, Inc., priority 2015, dated 2018).
Like-named read-outs stand apart in the source and are kept apart here.

Experiments:
[1] = target: hPAD4 (Homo sapiens, UniProt Q9UM07); experiment: hPAD4 RFMS (RapidFire mass spectrometry) PAD4 inhibition assay; assay type: biochemical; conditions: hPAD4 enzyme, RFMS readout;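 as to hPAD4 RFMS pIC50: grade E means pIC50 at most 4 and F means pIC50 4.0 to 5.0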
Protocol: (§1) Compounds of the present invention were assayed as inhibitors of PAD4 using the assay protocol described below.
(§2) Compound stock solutions were stored at RT. […] Final assay conditions were as follows:
(§3) Total incubation time: 65 mins at 37° C.
(§4) Stop solution: 40 μl 5% TCA in ACN
(§5) The compound numbers correspond to the compound numbers in Table 1. […] The term pIC50=−log(IC50). […] “NA” stands for “not assayed.”

[2] = target: mPAD4 (Mus musculus, UniProt Q9Z183); experiment: mPAD4 RFMS PAD4 inhibition assay; assay type: biochemical; conditions: mPAD4, RFMS readout;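 as to mPAD4 RFMS pIC50: grade E means pIC50 at most 4 and F means pIC50 4.0 to 5.0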
Protocol: as §1, §2, §3, §4, §5

[3] = pIC50=−log(IC50), read-out: hPAD4 RFMS pIC50 (converted)
[4] = pIC50=−log(IC50), read-out: mPAD4 RFMS pIC50 (converted)

Chain of mPAD4 (Q9Z183 whole entry): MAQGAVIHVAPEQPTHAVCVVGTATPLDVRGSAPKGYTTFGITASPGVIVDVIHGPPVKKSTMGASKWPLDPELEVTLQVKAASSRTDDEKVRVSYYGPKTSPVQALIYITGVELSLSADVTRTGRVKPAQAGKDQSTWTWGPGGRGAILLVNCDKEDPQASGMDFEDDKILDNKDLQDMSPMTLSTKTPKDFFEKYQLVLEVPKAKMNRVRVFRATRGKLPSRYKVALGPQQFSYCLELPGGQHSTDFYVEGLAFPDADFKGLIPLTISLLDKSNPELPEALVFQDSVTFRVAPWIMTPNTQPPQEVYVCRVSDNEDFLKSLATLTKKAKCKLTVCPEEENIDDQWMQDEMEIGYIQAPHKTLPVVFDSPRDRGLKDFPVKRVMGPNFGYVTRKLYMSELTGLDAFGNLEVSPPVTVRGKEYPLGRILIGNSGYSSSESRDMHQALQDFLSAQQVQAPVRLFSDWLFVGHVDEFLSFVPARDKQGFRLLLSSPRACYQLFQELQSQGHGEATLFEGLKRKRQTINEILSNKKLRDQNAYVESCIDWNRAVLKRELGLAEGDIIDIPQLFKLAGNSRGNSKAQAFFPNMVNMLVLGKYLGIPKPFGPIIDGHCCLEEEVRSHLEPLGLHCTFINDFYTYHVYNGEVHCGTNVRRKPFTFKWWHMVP
Chain of hPAD4 (Q9UM07 whole entry): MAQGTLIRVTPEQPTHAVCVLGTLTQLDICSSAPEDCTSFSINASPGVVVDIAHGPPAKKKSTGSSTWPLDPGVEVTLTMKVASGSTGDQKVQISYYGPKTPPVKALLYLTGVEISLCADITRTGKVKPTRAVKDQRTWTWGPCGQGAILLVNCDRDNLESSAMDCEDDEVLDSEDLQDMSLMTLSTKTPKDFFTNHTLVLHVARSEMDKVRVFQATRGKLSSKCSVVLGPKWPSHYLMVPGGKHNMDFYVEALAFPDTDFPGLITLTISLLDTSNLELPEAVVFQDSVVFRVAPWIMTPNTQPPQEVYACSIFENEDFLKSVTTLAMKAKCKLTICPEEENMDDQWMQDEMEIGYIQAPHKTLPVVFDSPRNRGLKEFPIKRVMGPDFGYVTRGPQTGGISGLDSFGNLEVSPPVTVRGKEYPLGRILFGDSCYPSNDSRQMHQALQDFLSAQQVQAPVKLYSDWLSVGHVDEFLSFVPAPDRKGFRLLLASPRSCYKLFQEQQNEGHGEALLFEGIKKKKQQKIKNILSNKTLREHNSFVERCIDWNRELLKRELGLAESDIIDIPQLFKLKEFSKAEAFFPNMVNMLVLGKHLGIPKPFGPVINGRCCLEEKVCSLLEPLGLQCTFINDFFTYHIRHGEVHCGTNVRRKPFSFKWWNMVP

IC50 [1, 3]	IC50 ([1]; read-out: hPAD4 RFMS IC50)	IC50 [2, 4]	IC50 ([2]; read-out: mPAD4 RFMS IC50)	hPAD4 RFMS pIC50 ([1]; pIC50=−log(IC50))	mPAD4 RFMS pIC50 ([2]; pIC50=−log(IC50))	SMILES
< 1 µM	< 1 µM	1 to 10 µM	1 to 5 µM			Cn1c(-c2cc3cccnc3n2CC2CC2)nc2cc(C(=O)N3C[C@H]4CC[C@@H]3[C@@H]4N)cc(F)c21 [Compound I-191]
< 1 µM	< 1 µM	1 to 10 µM	5 to 10 µM			COCCn1c(-c2nc3cc(C(=O)N4C[C@H]5CC[C@@H]4[C@@H]5N)ccc3n2C)cc2ccc(OC)nc21 [Compound I-192]
1 to 10 µM	1 to 5 µM	1 to 10 µM	1 to 5 µM			COCCn1c(-c2nc3cc(C(=O)N4CCC[C@@H](N)C4)ccc3n2C)cc2ccc(OC)nc21 [Compound I-193]
1 to 10 µM	1 to 5 µM	1 to 10 µM	5 to 10 µM			Cn1c(-c2cc3cccnc3n2CC2CC2)nc2cc(C(=O)N3C[C@H]4CC[C@@H]3[C@@H]4N)c(F)cc21 [Compound I-194]
1 to 10 µM	5 to 10 µM	1 to 10 µM	1 to 5 µM			COCCn1c(-c2nc3cc(C(=O)N4C[C@H](N)CC[C@@H]4C)cc(OC)c3n2C)cc2cccnc21 [Compound I-195]
< 1 µM	< 1 µM	< 1 µM	< 1 µM			COc1cc(C(=O)N2C[C@H]3CC[C@@H]2[C@@H]3N)cc2nc(-c3cc4ccc(C(F)(F)F)nc4n3CC3CC3)n(C)c12 [Compound I-196]
< 1 µM	< 1 µM	< 1 µM	< 1 µM			COc1cc(C(=O)N2CCC[C@@H](N)C2)cc2nc(-c3cc4ccc(C(F)(F)F)nc4n3CC3CC3)n(C)c12 [Compound I-197]
< 1 µM	< 1 µM	< 1 µM	< 1 µM			COc1cc(C(=O)N2C[C@H]3CC[C@@H]2[C@@H]3N)cc2nc(-c3cc4ccc(C)nc4n3CC3CC3)n(C)c12 [Compound I-198]
< 1 µM	< 1 µM	< 1 µM	< 1 µM			COc1cc(C(=O)N2CCC[C@@H](N)C2)cc2nc(-c3cc4ccc(C)nc4n3CC3CC3)n(C)c12 [Compound I-199]
< 1 µM	< 1 µM	< 1 µM	< 1 µM			CCn1c(-c2nc3cc(C(=O)N4C[C@H]5CC[C@@H]4[C@@H]5N)cc(OC)c3n2C)cc2ccc(OC(F)F)nc21 [Compound I-200, (1R,4R,7R)-2-{2-[6-(difluoromethoxy)-1-ethyl-1H-pyrrolo[2,3-b]pyridin-2-yl]-7-methoxy-1-methyl-1H-1,3-benzodiazole-5-carbonyl}-2-azabicyclo[2.2.1]heptan-7-amine]
< 1 µM	< 1 µM	< 1 µM	< 1 µM			CCn1c(-c2nc3cc(C(=O)N4CCC[C@@H](N)C4)cc(OC)c3n2C)cc2ccc(OC(F)F)nc21 [Compound I-201]
< 1 µM	< 1 µM	1 to 10 µM	1 to 5 µM			COc1cc(C(=O)N2C[C@H]3CC[C@@H]2[C@@H]3N)cc2nc(-c3cc4cnc(C)nc4n3CC3CC3)n(C)c12 [Compound I-202, (1R,4R,7R)-2-{2-[7-(Cyclopropylmethyl)-2-methyl-7H-pyrrolo[2,3-d]pyrimidin-6-yl]-7-methoxy-1-methyl-1H-1,3-benzodiazole-5-carbonyl}-2-azabicyclo[2.2.1]heptan-7-amine]
< 1 µM	< 1 µM	1 to 10 µM	1 to 5 µM			COc1cc(C(=O)N2CCC[C@@H](N)C2)cc2nc(-c3cc4cnc(C)nc4n3CC3CC3)n(C)c12 [Compound I-203]
< 1 µM	< 1 µM	< 1 µM	< 1 µM			CCn1c(-c2nc3cc(C(=O)N4CCC[C@@H](N)C4)cc(OC)c3n2C[C@H]2C[C@@](C)(OC)C2)cc2ccc(OC)nc21 [Compound I-204]
< 1 µM	< 1 µM	< 1 µM	< 1 µM			CCn1c(-c2nc3cc(C(=O)N4C[C@H](N)C[C@@H](F)C4)cc(OC)c3n2C[C@H]2C[C@@](C)(OC)C2)cc2ccc(OC)nc21 [Compound I-205]
< 1 µM	< 1 µM	< 1 µM	< 1 µM			CCn1c(-c2nc3cc(C(=O)N4C[C@H]5CC[C@@H]4[C@@H]5N)cc(OC)c3n2C[C@H]2C[C@@](C)(OC)C2)cc2ccc(OC)nc21 [Compound I-206]
1 to 10 µM	5 to 10 µM	1 to 10 µM	1 to 5 µM			CCn1c(-c2nc3cc(C(=O)N4C[C@H]5CC[C@@H]4[C@@H]5N)cc(OC)c3n2[C@H]2C[C@H](OC)C2)cc2cccnc21 [Compound I-207]

IC50 [1, 3]	IC50 ([1]; read-out: hPAD4 RFMS IC50)	IC50 [2, 4]	IC50 ([2]; read-out: mPAD4 RFMS IC50)	hPAD4 RFMS pIC50 ([1]; pIC50=−log(IC50))	mPAD4 RFMS pIC50 ([2]; pIC50=−log(IC50))	SMILES
< 1 µM	< 1 µM	< 1 µM	< 1 µM			COc1cc(C(=O)N2C[C@H](N)C[C@@H](F)C2)cc2nc(-c3cc4ccc(C(F)(F)F)nc4n3CC3CC3)n(C)c12 [Compound I-208]
< 1 µM	< 1 µM	< 1 µM	< 1 µM			COc1cc(C(=O)N2C[C@H](N)C[C@@H](F)C2)cc2nc(-c3cc4cccnc4n3CC3CC3)n(C[C@H]3C[C@@](C)(OC)C3)c12 [Compound I-209]
< 1 µM	< 1 µM	< 1 µM	< 1 µM			COc1cc(C(=O)N2C[C@H]3CC[C@@H]2[C@@H]3N)cc2nc(-c3cc4ccc(C(C)(C)O)nc4n3CC3CC3)n(C)c12 [Compound I-210, 2-(2-{5-[(1R,4R,7R)-7-Amino-2-azabicyclo[2.2.1]heptane-2-carbonyl]-7-methoxy-1-methyl-1H-1,3-benzodiazol-2-yl}-1-(cyclopropylmethyl)-1H-pyrrolo[2,3-b]pyridin-6-yl)propan-2-ol]
< 1 µM	< 1 µM	< 1 µM	< 1 µM			COc1cc(C(=O)N2CCC[C@@H](N)C2)cc2nc(-c3cc4ccc(C(C)(C)O)nc4n3CC3CC3)n(C)c12 [Compound I-211]
10 to 100 µM	> 10 µM	10 to 100 µM	> 10 µM			COc1cc(C(=O)N2C[C@@H]3CC[C@H]2[C@@H](N)C3)cc2nc(-c3cc4cccnc4n3CC3CC3)n(C)c12 [Compound I-212]
< 1 µM	< 1 µM	< 1 µM	< 1 µM			COc1cc(C(=O)N2C[C@H]3CC[C@@H]2[C@@H]3N)cc2nc(-c3cc4cccnc4n3CC3CC3)n(CC[S+](C)[O-])c12 (stereo partly drawn) [Compound I-213, (1R,4R,7R)-2-{2-[1-(Cyclopropylmethyl)-1H-pyrrolo[2,3-b]pyridin-2-yl]-1-(2-methanesulfinylethyl)-7-methoxy-1H-1,3-benzodiazole-5-carbonyl}-2-azabicyclo[2.2.1]heptan-7-amine]
< 1 µM	< 1 µM	1 to 10 µM	1 to 5 µM			COc1cc(C(=O)N2C[C@H]3CC[C@@H]2[C@@H]3N)cc2nc(-c3cc4cccnc4n3CC3CC3)n(CCS(C)(=O)=O)c12 [Compound I-214, (1R,4R,7R)-2-{2-[1-(cyclopropylmethyl)-1H-pyrrolo[2,3-b]pyridin-2-yl]-1-(2-methanesulfonylethyl)-7-methoxy-1H-1,3-benzodiazole-5-carbonyl}-2-azabicyclo[2.2.1]heptan-7-amine]
	> 10 µM		> 10 µM	E/F	E/F	COc1cc(C(=O)N2C[C@@H]3CC[C@H]2[C@H](N)C3)cc2nc(-c3cc4cccnc4n3CC3CC3)n(C)c12 [Compound I-215]
10 to 100 µM	> 10 µM	10 to 100 µM	> 10 µM			COc1cc(C(=O)N2C[C@H]3CC[C@@H]2[C@@H](N)C3)cc2nc(-c3cc4cccnc4n3CC3CC3)n(C)c12 [Compound I-216]
< 1 µM	< 1 µM	< 1 µM	< 1 µM			COc1cc(C(=O)N2C[C@H]3CC[C@@H]2[C@@H]3N)cc2nc(-c3cc4cccnc4n3CC3CC3)n(CC3CCOC3)c12 (stereo partly shown) [Compound I-217]
1 to 10 µM	1 to 5 µM	1 to 10 µM	1 to 5 µM			CCn1c(-c2nc3cc(C(=O)N4C[C@H]5CC[C@@H]4[C@@H]5N)cc(OC)c3n2[C@H]2C[C@@H](OC)C2)cc2cccnc21 [Compound I-218]
< 1 µM	< 1 µM	1 to 10 µM	1 to 5 µM			COc1cc(C(=O)N2C[C@H]3CC[C@@H]2[C@@H]3N)cc2nc(-c3cc4cccnc4n3CC3CC3)n([C@H]3C[C@@H](OC)C3)c12 [Compound I-219]
< 1 µM	< 1 µM	< 1 µM	< 1 µM			COc1cc(C(=O)N2C[C@H]3CC[C@@H]2[C@@H]3N)cc2nc(-c3cc4cc(F)cnc4n3CC3CC3)n(C)c12 [Compound I-222]
< 1 µM	< 1 µM	< 1 µM	< 1 µM			CO[C@]1(C)C[C@H](Cn2c(-c3cc4cccnc4n3CC3CC3)nc3cc(C(=O)N4C[C@H]5CC[C@@H]4[C@@H]5N)cc(F)c32)C1 [Compound I-223]
< 1 µM	< 1 µM	< 1 µM	< 1 µM			COc1cc(C(=O)N2C[C@H]3CC[C@@H]2[C@@H]3N)cc2nc(-c3cc4cccnc4n3CC3CC3)n([C@H]3C[C@H](F)C3)c12 [Compound I-224]
< 1 µM	< 1 µM	< 1 µM	< 1 µM			COc1cc(C(=O)N2C[C@H]3CC[C@@H]2[C@@H]3N)cc2nc(-c3cc4cccnc4n3CC3CC3)n([C@H]3C[C@@H](F)C3)c12 [Compound I-225]
< 1 µM	< 1 µM	< 1 µM	< 1 µM			COc1ccc2cc(-c3nc4cc(C(=O)N5C[C@H]6CC[C@@H]5[C@@H]6N)cc(F)c4n3C)n(CC3CC3)c2n1 [Compound I-230]
